The record followed here is patent US20260201008A1, “SECRETIN-DERIVED GLP1R SELECTIVE AGONISTS” (GUBRA A/S, priority 2023, published 2026).

Series [1] can be described thus: Turbidity of crude library peptides (absorbance at 600 nm). The class given is physicochemical. As to conditions: Physical stability of peptides. The method, boiled down: (§1)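 Crude peptides at 267 μM in 50 mM sodium acetate pH 4.0 or 50 mM sodium phosphate pH 7.0, pre-incubated 1-2 h at room temperature, then 4 μM final ThT added. Turbidity read first as A600. ThT fluorescence (ex 450/em 480 nm) read every 10 min for 72 h at 40° C, with 5 min shaking before each read; fibril formation = average emission.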

Series [2] in a line: Fibril formation of crude library peptides (Thioflavin T). The format is physicochemical. Also on record: key: average ThT fluorescence emission at 480 nm (ex 450 nm), raw units. As to conditions: Physical stability of peptides. The method, boiled down: as §1
The target of another series is GLP1R (Homo sapiens, UniProt P43220). Nature of the series: hGLP1R potency, cAMP accumulation in CHO-K1 cells stably overexpressing hGLP1R. The format is cell-based. Also on record: host or cells: CHO-K1. Conditions: for Selectivity: SCTR EC50/GLP1R EC50 ratio; for EC50: cAMP accumulation, CHO-K1 cells overexpressing hGLP1R, read-out: pEC50 hGLPR1 (converted). The procedure, abridged:
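Thawed cells go straight into buffer containing 0.5 mM IBMX and 0.05% casein, get graded compound doses for 30 min at room temperature, and are then assayed for accumulated cAMP by time-resolved FRET. Human GLP-1(7-36) serves as positive control; EC50 is derived by nonlinear regression.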
A general note: Cyclic AMP is a second messenger, typically raised through Gs and lowered through Gi signalling.

In the next series the target is SCTR (Homo sapiens, UniProt P47872). Kind of series: hSCTR potency, cAMP accumulation in CHO-K1 cells stably overexpressing hSCTR. The class given is cell-based. Also noted: alternatively Euroscreen ES-712-AF; FAST-0161L; host or cells: CHO-K1. As to conditions: cAMP accumulation, CHO-K1 cells overexpressing hSCTR; read-out: pEC50 hSCTR (converted). The procedure, abridged:
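Read-out is TR-FRET cAMP detection, recorded one hour after reagent addition, in CHO-K1 cells stably overexpressing hSCTR. Cells in DPBS containing 0.05% casein and 0.5 mM IBMX are exposed to graded peptide doses for 30 min at room temperature, with human secretin as reference agonist.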

Numbered stars: 1 amine (or outer) side, 2 acyl side, 3 side chain; on linkers, the order of the positions; unused ones are H or OH. Square brackets hold non-standard residues; d marks the D form. Side chains are listed from the residue outwards. Peptide text beside a SMILES is read from it. * marks the point of attachment. C20 diacid = O=C(O)CCCCCCCCCCCCCCCCCCC(=O)*; γGlu = O=C(O)[C@H](CCC(=O)[*:2])N[*:1]; AEEA = NCCOCCOCC(=O)O; Aib = CC(C)(N)C(=O)O

Sequence of SCTR (P47872 23-440): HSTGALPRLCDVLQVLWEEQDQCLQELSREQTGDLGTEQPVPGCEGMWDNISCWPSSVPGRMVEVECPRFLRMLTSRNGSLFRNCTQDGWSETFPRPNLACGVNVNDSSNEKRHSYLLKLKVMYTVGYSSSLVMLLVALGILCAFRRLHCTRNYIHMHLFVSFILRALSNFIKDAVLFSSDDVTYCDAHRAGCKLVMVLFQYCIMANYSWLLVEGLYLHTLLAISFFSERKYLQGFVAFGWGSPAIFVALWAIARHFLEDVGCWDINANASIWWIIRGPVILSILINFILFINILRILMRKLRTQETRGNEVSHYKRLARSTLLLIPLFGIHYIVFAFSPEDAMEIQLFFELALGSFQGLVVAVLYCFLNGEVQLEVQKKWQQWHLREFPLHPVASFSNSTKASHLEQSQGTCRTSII
Sequence of GLP1R (P43220 24-463): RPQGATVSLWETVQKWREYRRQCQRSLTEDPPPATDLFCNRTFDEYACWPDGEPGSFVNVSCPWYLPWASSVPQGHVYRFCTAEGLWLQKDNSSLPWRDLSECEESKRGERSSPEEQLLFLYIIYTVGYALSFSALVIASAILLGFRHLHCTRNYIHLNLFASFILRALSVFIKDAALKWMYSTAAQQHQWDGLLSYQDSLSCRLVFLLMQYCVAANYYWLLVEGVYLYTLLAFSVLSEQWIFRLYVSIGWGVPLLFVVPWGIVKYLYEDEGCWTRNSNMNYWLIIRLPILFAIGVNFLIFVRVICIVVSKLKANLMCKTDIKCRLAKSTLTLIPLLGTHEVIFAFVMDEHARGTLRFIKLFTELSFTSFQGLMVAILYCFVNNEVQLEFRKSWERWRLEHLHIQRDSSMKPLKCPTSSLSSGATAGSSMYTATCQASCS

Consider `CC(C)C[C@H](NC(=O)[C@H](Cc1ccccc1)NC(=O)[C@H](CCCNC(=N)N)NC(=O)[C@H](CCC(N)=O)NC(=O)[C@H](CCC(=O)O)NC(=O)[C@H](C)NC(=O)[C@H](C)NC(=O)[C@H](CCC(=O)O)NC(=O)[C@H](CCC(=O)O)NC(=O)[C@H](CCCCNC(=O)COCCOCCNC(=O)COCCOCCNC(=O)CC[C@H](NC(=O)CCCCCCCCCCCCCCCCCCC(=O)O)C(=O)O)NC(=O)[C@H](CC(C)C)NC(=O)[C@H](CCCNC(=N)N)NC(=O)[C@H](CO)NC(=O)[C@@H](NC(=O)[C@H](CC(=O)O)NC(=O)[C@H](CO)NC(=O)[C@@H](NC(=O)[C@H](Cc1ccccc1)NC(=O)[C@@H](NC(=O)CNC(=O)[C@H](CCC(=O)O)NC(=O)C(C)(C)NC(=O)[C@@H](N)Cc1c[nH]cn1)[C@@H](C)O)[C@@H](C)O)C(C)C)C(=O)N[C@@H](CCC(=O)O)C(=O)N[C@@H](Cc1c[nH]cn1)C(=O)N[C@@H](CC(C)C)C(=O)N[C@H](C(N)=O)C(C)C` [compound 22] (H-H[Aib]EGTFTSDVSRLK([AEEA-AEEA-γGlu-C20 diacid])EEAAEQRFLEHLV-NH2), for which, in series [1], the “Turbidity (pH 7)” value stood at 0.08. In series [2], the Fibril formation was determined as 16453. For the same compound, on GLP1R, the Selectivity was determined as 20678 and the EC50 is 0.02 nM. Moreover, on SCTR, the EC50 was 398 nM.
For the compound `CC(C)C[C@H](NC(=O)[C@H](Cc1ccccc1)NC(=O)[C@H](CCCNC(=N)N)NC(=O)[C@H](CCC(N)=O)NC(=O)[C@H](CCC(N)=O)NC(=O)[C@H](C)NC(=O)[C@H](C)NC(=O)[C@H](CCC(=O)O)NC(=O)[C@H](CCC(=O)O)NC(=O)[C@H](CCCCNC(=O)COCCOCCNC(=O)COCCOCCNC(=O)CC[C@H](NC(=O)CCCCCCCCCCCCCCCCCCC(=O)O)C(=O)O)NC(=O)[C@H](CC(C)C)NC(=O)[C@H](Cc1ccccc1)NC(=O)[C@H](CO)NC(=O)[C@@H](NC(=O)[C@H](CC(=O)O)NC(=O)[C@H](CO)NC(=O)[C@@H](NC(=O)[C@H](Cc1ccccc1)NC(=O)[C@@H](NC(=O)CNC(=O)[C@H](CCC(=O)O)NC(=O)C(C)(C)NC(=O)[C@@H](N)Cc1c[nH]cn1)[C@@H](C)O)[C@@H](C)O)C(C)C)C(=O)N[C@@H](CCC(=O)O)C(=O)N[C@@H](Cc1c[nH]cn1)C(=O)N[C@@H](CC(C)C)C(=O)N[C@H](C(N)=O)C(C)C` [compound 83] (H-H[Aib]EGTFTSDVSFLK([AEEA-AEEA-γGlu-C20 diacid])EEAAQQRFLEHLV-NH2), in series [1], the “Turbidity (pH 7)” value was determined as 0.08. Besides, the Fibril formation in series [2] amounted to 9070. Further, at GLP1R, the Selectivity is given as 54828 and the EC50 was 0.0316 nM. Further, the EC50 on SCTR is 1580 nM.
The corresponding values for `CC(C)C[C@H](NC(=O)[C@H](Cc1ccccc1)NC(=O)[C@H](CCCNC(=N)N)NC(=O)[C@H](CCC(N)=O)NC(=O)[C@H](CCC(N)=O)NC(=O)[C@H](C)NC(=O)[C@H](C)NC(=O)[C@H](CCC(=O)O)NC(=O)[C@H](CCC(=O)O)NC(=O)[C@H](CCCCNC(=O)COCCOCCNC(=O)COCCOCCNC(=O)CC[C@H](NC(=O)CCCCCCCCCCCCCCCCCCC(=O)O)C(=O)O)NC(=O)[C@H](CC(C)C)NC(=O)[C@H](CCCNC(=N)N)NC(=O)[C@H](CO)NC(=O)[C@@H](NC(=O)[C@H](CC(=O)O)NC(=O)[C@H](CO)NC(=O)[C@@H](NC(=O)[C@H](Cc1ccccc1)NC(=O)[C@@H](NC(=O)CNC(=O)[C@H](CCC(=O)O)NC(=O)C(C)(C)NC(=O)[C@@H](N)Cc1c[nH]cn1)[C@@H](C)O)[C@@H](C)O)C(C)C)C(=O)N[C@@H](CCC(=O)O)C(=O)N[C@@H](Cc1c[nH]cn1)C(=O)N[C@@H](CC(C)C)C(=O)N[C@H](C(N)=O)C(C)C` [compound 73] (H-H[Aib]EGTFTSDVSRLK([AEEA-AEEA-γGlu-C20 diacid])EEAAQQRFLEHLV-NH2) are 0.09, 14344, 10668, 0.00631 nM and 79.4 nM.
